Experimental data taken from article PMC4314399 (Cell calcium, 2014).
Read-outs that look alike come from different tables or passages of the source.

Legend:
Orai1 [1] = target: T1, Orai1 (Homo sapiens, UniProt Q13586+Q96D31); assay: fura-2 Ca2+ add-back; type: cell-based
Orai1 [2] = target: T1, Orai1; assay: fura-2 Ca2+ add-back; type: cell-based; remark: listed apart in the source

T1 sequence (Q96D31 whole entry): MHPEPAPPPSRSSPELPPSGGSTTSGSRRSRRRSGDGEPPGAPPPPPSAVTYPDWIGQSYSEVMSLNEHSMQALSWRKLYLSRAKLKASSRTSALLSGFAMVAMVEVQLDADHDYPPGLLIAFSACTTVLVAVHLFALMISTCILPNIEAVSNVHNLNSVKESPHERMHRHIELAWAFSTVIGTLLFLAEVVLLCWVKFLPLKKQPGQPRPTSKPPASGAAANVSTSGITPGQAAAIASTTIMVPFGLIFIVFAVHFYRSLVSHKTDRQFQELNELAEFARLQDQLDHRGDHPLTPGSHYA
T1 sequence (Q13586 23-685): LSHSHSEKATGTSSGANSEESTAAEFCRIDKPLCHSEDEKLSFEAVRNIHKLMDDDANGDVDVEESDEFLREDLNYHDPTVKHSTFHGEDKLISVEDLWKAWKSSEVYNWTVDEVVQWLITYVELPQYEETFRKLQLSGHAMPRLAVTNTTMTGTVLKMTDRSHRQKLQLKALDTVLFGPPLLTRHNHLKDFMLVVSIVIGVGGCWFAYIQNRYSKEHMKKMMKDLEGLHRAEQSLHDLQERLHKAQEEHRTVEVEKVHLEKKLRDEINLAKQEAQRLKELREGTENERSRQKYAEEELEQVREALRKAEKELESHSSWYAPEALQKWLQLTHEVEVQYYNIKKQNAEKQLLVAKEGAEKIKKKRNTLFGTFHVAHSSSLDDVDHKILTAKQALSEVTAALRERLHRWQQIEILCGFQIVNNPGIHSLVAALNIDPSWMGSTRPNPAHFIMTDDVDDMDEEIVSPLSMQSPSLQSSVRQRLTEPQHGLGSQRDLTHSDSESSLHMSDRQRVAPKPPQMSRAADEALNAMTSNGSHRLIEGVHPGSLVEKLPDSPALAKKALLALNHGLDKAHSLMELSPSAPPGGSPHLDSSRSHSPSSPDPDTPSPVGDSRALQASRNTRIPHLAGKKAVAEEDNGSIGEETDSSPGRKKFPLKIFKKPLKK

## DPB163-AE
Orai1 [1]
  IC50: ~600 nM

## DPB162-AE
Orai1 [2]
  IC50: ~200 nM
